Results published in patent US20220144812A1, “QUINOLINE DERIVATIVES AND THEIR USE FOR THE TREATMENT OF CANCER” (Epizyme, Inc., priority 2019, published 2022).
Like-named read-outs stand apart in the source and are kept apart here.

Columns and labels:
[1] = test system: H3K18Ac in HB-CLS-2 cells; experiment: H3K18AC in-cell western (ICW) assay; type: cell-based; settings: H3K18Ac in-cell western; read-out: CREBBP ICW IC50
Summary of the method: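 HB-CLS-2 cells seeded 16–24 hours before 2 hr compound treatment at 37° C, 5% CO2, then methanol-fixed. H3K18Ac detected with rabbit monoclonal primary (overnight, 4° C) and 800CW anti-rabbit secondary; DRAQ5 stained DNA. Plates imaged at 700 and 800 nm for integrated intensity; IC50 in μM.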

647V cells = experiment: High throughput proliferation (HTP) assay; type: cell-based; settings: high throughput proliferation, read-out: CREBBP HTP IC50
Summary of the method: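 Exponentially growing 647V cells in DMEM with 15% FBS were treated in triplicate with increasing compound concentrations at 37° C, 5% CO2. Viable cell number was read by CellTiter-Glo luminescence on day 7; IC50 in micromolar.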

CREBBP (1084-1701) = biological target: T1, CREBBP (1084-1701) (Homo sapiens, UniProt Q92793); experiment: Biochemical assay for CREBBP (1084-1701), SAMDI; settings: SAMDI, read-out: CREBBP Biochemistry IC50
T1 construct: measured in the following biochemical assay using CREBBP (1084-1701); purchased
T1 sequence (Q92793 1084-1701): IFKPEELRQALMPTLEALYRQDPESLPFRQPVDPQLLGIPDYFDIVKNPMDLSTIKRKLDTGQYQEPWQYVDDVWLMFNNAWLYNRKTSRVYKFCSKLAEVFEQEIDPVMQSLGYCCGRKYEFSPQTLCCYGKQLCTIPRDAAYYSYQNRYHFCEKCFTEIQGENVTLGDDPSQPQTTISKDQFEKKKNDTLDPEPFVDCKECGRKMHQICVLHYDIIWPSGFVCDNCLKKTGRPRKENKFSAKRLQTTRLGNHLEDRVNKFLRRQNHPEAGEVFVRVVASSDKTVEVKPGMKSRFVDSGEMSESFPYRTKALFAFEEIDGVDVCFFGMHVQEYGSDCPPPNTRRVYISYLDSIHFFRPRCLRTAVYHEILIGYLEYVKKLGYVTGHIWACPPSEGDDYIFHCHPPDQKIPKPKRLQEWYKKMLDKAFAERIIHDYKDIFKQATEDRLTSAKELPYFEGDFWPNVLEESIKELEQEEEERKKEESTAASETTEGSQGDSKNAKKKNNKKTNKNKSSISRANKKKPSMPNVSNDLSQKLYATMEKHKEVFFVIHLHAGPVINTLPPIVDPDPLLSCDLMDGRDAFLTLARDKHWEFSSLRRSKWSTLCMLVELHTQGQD
Summary of the method: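 CREBBP (1084-1701) preincubated with compound 30 min at RT, then substrate mix (biotin-H3 11-25 K14R/K23R peptide, acetyl-CoA) added for 30 min at RT. Reaction stopped with formic acid, neutralised with sodium bicarbonate. Peptide acetylation read by SAMDI mass spectrometry to derive IC50.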

EP300 (P300(1048-1664)) = biological target: T2, EP300 (P300(1048-1664)) (Homo sapiens, UniProt Q09472); experiment: Biochemical assay for EP300, SAMDI; settings: EP300, SAMDI; read-out: EP300 Biochemistry IC50
T2 construct: P300(1048-1664)
T2 sequence (Q09472 1048-1664): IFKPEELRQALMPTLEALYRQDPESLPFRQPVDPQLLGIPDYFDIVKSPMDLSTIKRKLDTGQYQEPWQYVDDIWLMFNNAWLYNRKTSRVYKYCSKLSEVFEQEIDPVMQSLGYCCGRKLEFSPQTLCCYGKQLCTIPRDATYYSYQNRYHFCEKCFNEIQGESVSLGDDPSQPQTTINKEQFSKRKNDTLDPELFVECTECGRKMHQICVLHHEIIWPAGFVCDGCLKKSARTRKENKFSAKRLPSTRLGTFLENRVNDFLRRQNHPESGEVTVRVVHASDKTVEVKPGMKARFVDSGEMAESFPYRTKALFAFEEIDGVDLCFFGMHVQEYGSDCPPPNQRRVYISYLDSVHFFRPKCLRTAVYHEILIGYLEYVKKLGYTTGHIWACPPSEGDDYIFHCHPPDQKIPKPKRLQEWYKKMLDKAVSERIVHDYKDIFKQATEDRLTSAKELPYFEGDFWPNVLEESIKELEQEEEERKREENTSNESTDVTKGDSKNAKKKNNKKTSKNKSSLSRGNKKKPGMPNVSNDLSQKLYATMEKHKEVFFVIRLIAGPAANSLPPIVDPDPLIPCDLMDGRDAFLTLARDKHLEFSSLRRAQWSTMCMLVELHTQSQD
Description: The following example describes materials and methods relating to a biochemical assay for EP300. IC50 values (micromolar (μM)) are summarized in Table 1, Table 2, and Table 3 under the column labeled: “EP300 Biochemistry IC50 (micromolar).”

Structure (SMILES) | IC50 [1] [nM] | IC50 (CREBBP (1084-1701)) [nM] | IC50 (EP300 (P300(1048-1664))) [nM] | IC50 (647V cells; Homo sapiens, 647-V) [nM] | IC50 (647V cells) [nM]
CCn1ncc(CN(C)C(=O)c2cc(-c3ccc(NCCNC)c(C)n3)nc3ccc(C(=O)N(C)C)cc23)c1C [Compound 460] | 20000 | ≥ 50000 | ≥ 50000 | 20000 | 
CCn1ncc(CN(C(=O)c2cc(-c3ccc(NCCNC)c(C)n3)nc3ccc(Cl)cc23)C(C)C)c1C [Compound 465] | 4870 | 364 | 1480 | 1930 | 
CCn1ncc(C(=O)N(C)Cc2cc(-c3ccc(NCCNC)c(C)n3)nc3ccc(Cl)cc23)c1C [Compound 467] | 20000 | ≥ 50000 | 34200 | 5580 | 
CCn1ncc(CN(C)C(=O)c2cc(-c3ccc(NCCNC)c(C(F)(F)F)n3)nc3ccc(Cl)cc23)c1C [Compound 471] | 88.6 | 35.8 | 9.5 | 29.2 | 
CCc1ncc(CN(C)C(=O)c2cc(-c3ccc(OCC(O)CNC)c(C)n3)nc3ccc(COC)cc23)n1C (stereo not drawn) [Compound 477] | 2070 | 141 | 47.6 | 1280 | 
CCc1nc(-c2cc(C(=O)N(C)Cc3cnc(CC)n3C)c3cc(COC)ccc3n2)ccc1NCCNC [Compound 486] | 314 | 59.8 | 30.1 | 89.5 | 
CCn1ncc(CN(C)C(=O)c2cc(-c3ccc(NCCNC)c(C)n3)nc3cc(COC)ccc23)c1C [Compound 492] | 2400 | 7240 | 5990 | 1670 | 
CCn1ncc(CN(C)C(=O)c2cc(-c3ccc(OCC(O)CNC)c(C)n3)nc3ccc(COC)cc23)c1C (stereo not drawn) [Compound 496] | 937 | 167 | 59.9 | 689 | 
CCn1ncc(CN(C)C(=O)c2cc(-c3ccc(N4CC(N(C)C)C4)c(C)n3)nc3ccc(Cl)cc23)c1C [Compound 497] | 1630 | 846 | 661 | 2560 | 
CCc1ncc(CN(C)C(=O)c2nc(-c3cc(N)c4cn[nH]c4c3)nc3ccc(COC)cc23)n1C [Compound 500] | 371 | 25.3 | 28.5 | 409 | 
CCc1ncc(CN(C)C(=O)c2nc(-c3cc(C)cc(NC4CCNC4)c3)nc3ccc(COC)cc23)n1C (stereo not drawn) [Compound 501] | 3890 | 148 | 36.8 | 1150 | 
CCn1ncc(CN(C)C(=O)c2cc(-c3ccc(NCCNC)nn3)nc3ccc(Cl)cc23)c1C [Compound 504] | 3990 | 5780 | 2000 | 3730 | 
CCn1ncc(CN(C)C(=O)c2cc(-c3ccc(N(C)CCN)nn3)nc3ccc(Cl)cc23)c1C [Compound 505] | 2340 | 4520 | 3280 | 5960 | 
CCn1ncc(CN(C)C(=O)c2cc(-c3cc4n[nH]cc4cn3)nc3ccc(COC)cc23)c1C [Compound 506] | 185 | 64.8 | 7.6 | 567 | 
CCc1ncc(CN(C)C(=O)c2cc(-c3cc4n[nH]cc4cn3)nc3ccc(COC)cc23)n1C [Compound 510] | 225 | 62.9 | 9.3 | 465 | 
CCc1ncc(CN(C)C(=O)c2cc(-c3cc(C(=O)NC)n(C)n3)nc3ccc(Cl)cc23)n1C [Compound 512] | 104 | 15.2 | 4 | 110 | 

Now from value to molecule, other results behind:

IC50 [1] [nM] | IC50 (CREBBP (1084-1701)) [nM] | IC50 (EP300 (P300(1048-1664))) [nM] | Structure (SMILES) | IC50 (647V cells; Homo sapiens, 647-V) [nM] | IC50 (647V cells) [nM]
16400 | 9700 | 15800 | CCn1ncc(CN(C)C(=O)c2nc(-c3ccc(OCCCNC)c(C(C)(C)C)c3)nc3ccc(Cl)cc23)c1C [Compound 462] | 1410 | 
1400 | 2570 | 993 | CCn1ncc(CN(C)C(=O)c2nc(-c3cc(C)c4c(c3)NC(=O)C4)nc3ccc(Cl)cc23)c1C [Compound 463] | 1510 | 
20000 | 38000 | 19300 | CCn1ncc(CN(C)C(=O)c2nc(-c3ccc(OCCNC)c(Cl)c3)nc3ccc(CN(C)C)cc23)c1C [Compound 464] | 2050 | 
202 | 29.5 | 71.5 | CCn1ncc(CN(C)C(=O)c2nc(-c3cc4c(N)noc4cc3C)nc3ccc(Cl)cc23)c1C [Compound 466] | 189 | 
213 | 10.2 | 13.5 | CCn1ncc(CN(C)C(=O)c2nc(-c3cc(C)c4c(=O)[nH][nH]c4c3)nc3ccc(Cl)cc23)c1C [Compound 468] | 158 | 
56.1 | 19.3 | 10.9 | CCn1ncc(CN(C)C(=O)c2nc(-c3cc(C)nc(NCCN(C)C)c3)nc3ccc(Cl)cc23)c1C [Compound 469] | 29.2 | 
49 | 18.8 | 9.9 | CCn1ncc(CN(C)C(=O)c2nc(-c3cc(C)nc(NCCN(C)C)c3)nc3ccc(Cl)cc23)c1C [Compound 470] |  | 25.4
132 | 25.4 | 10 | CCn1ncc(CN(C)C(=O)c2cc(-c3ccc(NC4CCNC4)c(C)n3)nc3ccc(Cl)cc23)c1C (stereo not drawn) [Compound 472] | 48 | 
730 | 322 | 392 | CCn1ncc(CN(C)C(=O)c2cc(-c3cc(CNC)cc(C)n3)nc3ccc(Cl)cc23)c1C [Compound 473] | 380 | 
6530 | 22800 | 14500 | CCn1ncc(CN(C)C(=O)c2cc(-c3cnc(N)c(C)n3)nc3ccc(Cl)cc23)c1C [Compound 474] | 12800 | 
888 | 920 | 974 | CCn1ncc(CN(C)C(=O)c2nc(-c3cc(C#N)c4nc[nH]c4c3)nc3ccc(COC)cc23)c1C [Compound 475] | 757 | 
378 | 28.5 | 6.4 | CCn1ncc(CN(C)C(=O)c2nc(-c3cc(C)cc(N[C@H]4CCNC4)c3)nc3ccc(Cl)cc23)c1C [Compound 476] | 204 | 
70.8 | 18 | 10.1 | CCn1ncc(CN(C)C(=O)c2nc(-c3cc(C)cc(NC4CCNC4)c3)nc3ccc(COC)cc23)c1C (stereo not drawn) [Compound 479] | 43.6 | 
153 | 29.3 | 16.3 | CCn1ncc(CN(C)C(=O)c2nc(-c3cc(-c4ncc[nH]4)n(C)n3)nc3ccc(Cl)cc23)c1C [Compound 495] | 140 | 
5550 | 5080 | 4980 | CCn1ncc(CN(C)C(=O)c2nc(-c3ccc(OCCNC)c(Cl)c3)nc3ccc(C4COC4)cc23)c1C [Compound 498] | 2880 | 
137 | 14.9 | 3.5 | CCn1ncc(CN(C)C(=O)c2nc(-c3cc(N)c4cn[nH]c4c3)nc3ccc(COC)cc23)c1C [Compound 499] | 183 | 
2530 | 10600 | 4850 | CCn1ncc(CN(C)C(=O)c2cc(-c3ccc(N(C)C)nn3)nc3ccc(Cl)cc23)c1C [Compound 502] | 9010 | 
17100 | 9850 | 9280 | CCn1ncc(CN(C)C(=O)c2nc(-c3ccc(OCCNC)c(Cl)c3)nc3ccc(CS(C)(=O)=O)cc23)c1C [Compound 503] | 7610 | 
1600 | 556 | 1360 | CCn1ncc(CN(C)C(=O)c2nc(-c3cc4c(N)nn(CCNC)c4cc3C)nc3ccc(Cl)cc23)c1C [Compound 507] | 1010 | 
174 | 46.3 | 22.4 | CCn1ncc(CN(C)C(=O)c2nc(-c3cc4c(N)[nH]nc4cc3C)nc3ccc(COC)cc23)c1C [Compound 508] | 212 | 
